Measured values as given in ChEMBL document CHEMBL4359851, “Design, synthesis, and biological evaluation of a new class of histone acetyltransferase p300 inhibitors” (Eur J Med Chem, 2019).
pIC50: −log10 of the molar value. The source made the active and inactive calls. No cut-off for these calls is given here.

Legend:
[1] = target: T1, Histone acetyltransferase p300 (Homo sapiens, UniProt Q09472); assay: Inhibition of p300 (unknown origin) using biotinylated histone H3 (1 to 21 residues) as substrate measured after 90 mins in presence of Acetyl CoA by AlphaLISA assay
T1 sequence (Q09472 whole entry, the tested form may be a part): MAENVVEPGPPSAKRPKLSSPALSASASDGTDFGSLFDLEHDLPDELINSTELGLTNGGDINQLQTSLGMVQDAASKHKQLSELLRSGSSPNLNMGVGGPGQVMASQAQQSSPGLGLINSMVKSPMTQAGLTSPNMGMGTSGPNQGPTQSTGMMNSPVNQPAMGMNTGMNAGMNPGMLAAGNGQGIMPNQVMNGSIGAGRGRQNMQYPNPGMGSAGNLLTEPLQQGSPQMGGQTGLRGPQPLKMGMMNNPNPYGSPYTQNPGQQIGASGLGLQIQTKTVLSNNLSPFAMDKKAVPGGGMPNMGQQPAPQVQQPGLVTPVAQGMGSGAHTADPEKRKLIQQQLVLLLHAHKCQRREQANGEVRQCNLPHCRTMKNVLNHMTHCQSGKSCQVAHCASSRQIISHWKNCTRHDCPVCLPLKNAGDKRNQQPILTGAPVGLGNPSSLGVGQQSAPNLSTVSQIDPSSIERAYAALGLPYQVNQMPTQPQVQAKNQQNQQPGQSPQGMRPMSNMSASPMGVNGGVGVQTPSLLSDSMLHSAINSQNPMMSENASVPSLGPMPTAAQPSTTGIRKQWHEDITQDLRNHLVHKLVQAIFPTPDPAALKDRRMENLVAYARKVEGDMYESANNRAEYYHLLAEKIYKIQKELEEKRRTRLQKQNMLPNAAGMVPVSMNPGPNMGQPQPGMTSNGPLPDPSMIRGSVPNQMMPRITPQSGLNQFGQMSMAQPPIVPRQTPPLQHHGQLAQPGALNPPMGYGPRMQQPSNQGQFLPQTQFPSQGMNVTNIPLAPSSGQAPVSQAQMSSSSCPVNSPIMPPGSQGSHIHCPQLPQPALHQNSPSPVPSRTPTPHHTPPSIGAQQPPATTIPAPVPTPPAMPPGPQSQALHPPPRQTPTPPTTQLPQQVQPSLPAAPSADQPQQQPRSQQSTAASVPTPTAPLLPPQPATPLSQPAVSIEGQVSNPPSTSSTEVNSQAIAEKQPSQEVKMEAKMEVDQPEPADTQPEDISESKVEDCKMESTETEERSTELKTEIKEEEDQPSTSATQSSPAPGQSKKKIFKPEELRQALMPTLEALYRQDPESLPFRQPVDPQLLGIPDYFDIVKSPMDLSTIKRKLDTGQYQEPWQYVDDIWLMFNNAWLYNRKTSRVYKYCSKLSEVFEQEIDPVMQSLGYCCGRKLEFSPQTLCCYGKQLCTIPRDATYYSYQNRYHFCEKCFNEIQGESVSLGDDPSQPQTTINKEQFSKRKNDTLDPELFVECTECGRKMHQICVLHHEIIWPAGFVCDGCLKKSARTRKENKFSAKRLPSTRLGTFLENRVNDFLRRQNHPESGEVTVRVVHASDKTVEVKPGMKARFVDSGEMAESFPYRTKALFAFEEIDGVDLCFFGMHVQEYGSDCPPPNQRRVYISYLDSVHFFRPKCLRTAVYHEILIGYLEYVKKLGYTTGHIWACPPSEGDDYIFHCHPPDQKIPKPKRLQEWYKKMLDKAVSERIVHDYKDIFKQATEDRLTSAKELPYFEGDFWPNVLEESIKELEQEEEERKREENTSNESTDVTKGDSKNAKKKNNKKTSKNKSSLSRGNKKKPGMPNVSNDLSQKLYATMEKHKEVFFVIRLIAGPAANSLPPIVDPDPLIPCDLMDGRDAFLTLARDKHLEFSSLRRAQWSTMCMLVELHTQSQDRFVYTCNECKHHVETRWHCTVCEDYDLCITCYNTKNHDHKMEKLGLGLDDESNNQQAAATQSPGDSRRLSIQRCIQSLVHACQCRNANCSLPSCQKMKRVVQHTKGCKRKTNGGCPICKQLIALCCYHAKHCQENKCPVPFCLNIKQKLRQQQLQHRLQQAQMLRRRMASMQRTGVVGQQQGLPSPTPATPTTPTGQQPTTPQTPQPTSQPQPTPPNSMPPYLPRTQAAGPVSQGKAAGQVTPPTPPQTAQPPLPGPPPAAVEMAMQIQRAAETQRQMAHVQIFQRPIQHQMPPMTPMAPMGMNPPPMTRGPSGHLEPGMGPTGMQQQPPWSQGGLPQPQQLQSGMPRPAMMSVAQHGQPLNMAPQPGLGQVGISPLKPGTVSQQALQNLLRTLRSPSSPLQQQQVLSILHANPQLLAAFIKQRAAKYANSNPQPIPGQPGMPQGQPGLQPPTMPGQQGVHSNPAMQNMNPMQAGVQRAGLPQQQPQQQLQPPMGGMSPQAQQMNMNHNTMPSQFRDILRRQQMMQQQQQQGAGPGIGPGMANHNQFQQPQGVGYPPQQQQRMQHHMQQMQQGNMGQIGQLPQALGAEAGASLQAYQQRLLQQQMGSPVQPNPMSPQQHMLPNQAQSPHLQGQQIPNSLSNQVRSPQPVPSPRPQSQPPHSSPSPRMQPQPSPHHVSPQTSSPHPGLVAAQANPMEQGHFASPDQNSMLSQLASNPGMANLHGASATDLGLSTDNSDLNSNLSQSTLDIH

[2] = test system: T47D; assay: Antiproliferative activity against HER2-negative human T47D cells measured after 6 days of incubation by sulforhodamine B assay; format: functional, cell-based; conditions: 144 h
[3] = test system: MCF7; assay: Antiproliferative activity against HER2-negative human MCF7 cells measured after 6 days of incubation by sulforhodamine B assay; format: functional, cell-based; conditions: MCF7, 144 h
[4] = target: T1, Histone acetyltransferase p300; assay: Inhibition of p300 in human U2932 cells assessed as reduction in H3K27 acetylation at 10 uM measured after 4 days in presence of EZH2 inhibitor EPZ6438 by Western blot analysis; format: cell-based
[5] = Solubility of compound in ethyl acetate; format: physicochemical
[6] = Solubility of compound in water; format: physicochemical; conditions: buffer
[7] = Reactivity with glutathione assessed as addition product with thiol group measured after 6 hrs by mass spectrometry; format: physicochemical
[8] = target: T2, Protein deacetylase HDAC6 (Homo sapiens, UniProt Q9UBN7); assay: Inhibition of recombinant HDAC6 (unknown origin) measured after 30 mins by fluorescence assay
T2 sequence (Q9UBN7 whole entry): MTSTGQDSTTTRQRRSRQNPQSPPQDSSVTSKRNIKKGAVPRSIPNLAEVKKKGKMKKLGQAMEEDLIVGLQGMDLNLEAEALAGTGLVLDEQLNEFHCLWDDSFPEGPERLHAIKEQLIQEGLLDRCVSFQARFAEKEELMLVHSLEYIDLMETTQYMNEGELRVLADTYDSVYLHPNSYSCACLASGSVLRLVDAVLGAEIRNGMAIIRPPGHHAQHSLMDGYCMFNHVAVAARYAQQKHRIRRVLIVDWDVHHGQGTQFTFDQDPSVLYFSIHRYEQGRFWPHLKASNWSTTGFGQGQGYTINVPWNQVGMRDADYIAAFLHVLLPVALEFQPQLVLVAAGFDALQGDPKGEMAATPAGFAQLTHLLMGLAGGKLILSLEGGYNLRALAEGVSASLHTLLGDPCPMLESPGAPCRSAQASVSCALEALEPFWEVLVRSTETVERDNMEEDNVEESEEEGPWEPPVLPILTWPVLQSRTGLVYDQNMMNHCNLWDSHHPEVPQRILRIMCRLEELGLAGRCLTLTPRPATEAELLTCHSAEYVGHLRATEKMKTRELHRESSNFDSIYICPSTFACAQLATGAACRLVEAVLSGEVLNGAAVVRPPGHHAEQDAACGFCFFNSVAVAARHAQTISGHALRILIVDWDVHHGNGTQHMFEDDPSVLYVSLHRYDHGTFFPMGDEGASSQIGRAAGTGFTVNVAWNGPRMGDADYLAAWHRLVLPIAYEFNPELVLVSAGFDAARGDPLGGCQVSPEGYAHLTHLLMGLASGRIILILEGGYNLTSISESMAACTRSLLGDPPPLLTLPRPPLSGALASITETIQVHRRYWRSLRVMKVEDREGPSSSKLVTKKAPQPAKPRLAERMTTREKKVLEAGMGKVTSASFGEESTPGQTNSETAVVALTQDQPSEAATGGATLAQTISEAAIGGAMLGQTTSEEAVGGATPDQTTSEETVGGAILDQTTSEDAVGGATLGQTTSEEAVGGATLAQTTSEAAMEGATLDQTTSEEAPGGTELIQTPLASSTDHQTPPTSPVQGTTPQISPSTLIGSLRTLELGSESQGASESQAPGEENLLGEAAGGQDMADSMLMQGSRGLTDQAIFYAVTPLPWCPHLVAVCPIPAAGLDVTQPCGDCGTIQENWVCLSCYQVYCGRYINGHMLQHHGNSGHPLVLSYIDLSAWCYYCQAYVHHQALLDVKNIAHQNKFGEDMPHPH

[9] = target: Histone deacetylase 2 (Homo sapiens, UniProt Q92769); assay: Inhibition of recombinant HDAC2 (unknown origin) measured after 30 mins by fluorescence assay
Chain of Histone deacetylase 2 (Q92769 whole entry): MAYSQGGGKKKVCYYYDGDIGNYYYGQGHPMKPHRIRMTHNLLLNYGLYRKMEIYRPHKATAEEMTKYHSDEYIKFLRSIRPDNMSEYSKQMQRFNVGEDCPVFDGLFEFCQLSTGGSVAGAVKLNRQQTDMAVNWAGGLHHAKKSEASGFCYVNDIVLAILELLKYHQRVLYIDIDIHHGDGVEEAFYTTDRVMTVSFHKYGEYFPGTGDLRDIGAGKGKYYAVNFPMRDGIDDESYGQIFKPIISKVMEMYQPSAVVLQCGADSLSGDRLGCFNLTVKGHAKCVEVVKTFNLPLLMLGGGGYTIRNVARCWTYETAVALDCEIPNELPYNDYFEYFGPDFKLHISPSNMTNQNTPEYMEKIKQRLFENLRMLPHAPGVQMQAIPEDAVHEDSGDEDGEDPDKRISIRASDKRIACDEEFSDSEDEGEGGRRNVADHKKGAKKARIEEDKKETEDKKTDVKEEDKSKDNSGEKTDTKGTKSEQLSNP

[10] = Reactivity with glutathione assessed as addition product with thiol group measured at 50 degC by mass spectrometry; format: physicochemical
[11] = Reactivity with dithiothretol assessed as addition product with thiol group measured at 50 degC by mass spectrometry; format: physicochemical
[12] = target: Histone deacetylase 3 (Homo sapiens, UniProt O15379); assay: Inhibition of recombinant HDAC3 (unknown origin) measured after 30 mins by fluorescence assay
Chain of Histone deacetylase 3 (O15379 whole entry): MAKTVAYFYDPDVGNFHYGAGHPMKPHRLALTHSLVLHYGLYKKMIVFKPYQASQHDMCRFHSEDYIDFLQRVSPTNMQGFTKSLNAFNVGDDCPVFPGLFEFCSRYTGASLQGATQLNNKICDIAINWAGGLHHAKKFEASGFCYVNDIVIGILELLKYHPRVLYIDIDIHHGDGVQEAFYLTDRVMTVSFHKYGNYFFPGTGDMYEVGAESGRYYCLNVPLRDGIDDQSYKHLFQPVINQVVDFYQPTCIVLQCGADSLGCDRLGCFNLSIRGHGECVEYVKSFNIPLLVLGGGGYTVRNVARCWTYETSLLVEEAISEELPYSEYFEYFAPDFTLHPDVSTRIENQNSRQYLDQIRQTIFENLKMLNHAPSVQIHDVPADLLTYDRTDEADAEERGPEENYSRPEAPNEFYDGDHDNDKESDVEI

[13] = target: T3, Histone deacetylase 8 (Homo sapiens, UniProt Q9BY41); assay: Inhibition of recombinant HDAC8 (unknown origin) measured after 30 mins by fluorescence assay
T3 sequence (Q9BY41 whole entry): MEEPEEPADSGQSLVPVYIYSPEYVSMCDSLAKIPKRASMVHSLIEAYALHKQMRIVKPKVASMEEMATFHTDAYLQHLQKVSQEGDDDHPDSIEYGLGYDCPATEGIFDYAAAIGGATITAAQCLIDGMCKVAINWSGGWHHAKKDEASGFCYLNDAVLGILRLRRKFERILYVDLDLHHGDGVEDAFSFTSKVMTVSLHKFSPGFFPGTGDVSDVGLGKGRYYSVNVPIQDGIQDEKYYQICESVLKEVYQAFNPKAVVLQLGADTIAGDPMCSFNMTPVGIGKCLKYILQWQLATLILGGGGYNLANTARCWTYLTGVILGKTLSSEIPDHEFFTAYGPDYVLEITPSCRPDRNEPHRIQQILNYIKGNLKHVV

[14] = target: Histone deacetylase 1 (Homo sapiens, UniProt Q13547); assay: Inhibition of recombinant HDAC1 (unknown origin) measured after 30 mins by fluorescence assay
Chain of Histone deacetylase 1 (Q13547 whole entry): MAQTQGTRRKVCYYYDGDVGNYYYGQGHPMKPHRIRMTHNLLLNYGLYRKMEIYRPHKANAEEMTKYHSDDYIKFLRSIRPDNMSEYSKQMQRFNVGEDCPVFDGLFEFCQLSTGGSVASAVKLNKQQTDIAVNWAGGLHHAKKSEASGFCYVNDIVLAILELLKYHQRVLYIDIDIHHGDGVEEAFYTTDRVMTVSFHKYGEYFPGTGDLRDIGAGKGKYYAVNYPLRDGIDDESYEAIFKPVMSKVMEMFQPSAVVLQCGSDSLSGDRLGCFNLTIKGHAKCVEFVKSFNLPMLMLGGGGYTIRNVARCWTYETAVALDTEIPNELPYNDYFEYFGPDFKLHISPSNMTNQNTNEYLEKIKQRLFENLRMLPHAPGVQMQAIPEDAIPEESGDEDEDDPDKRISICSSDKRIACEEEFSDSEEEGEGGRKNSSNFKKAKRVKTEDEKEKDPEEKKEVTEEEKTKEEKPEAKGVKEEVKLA

[15] = Reactivity with dithiothretol assessed as addition product with thiol group measured after 6 hrs by mass spectrometry; format: physicochemical
[16] = Reactivity with dithiothretol assessed as addition product with thiol group measured within 1 hr by mass spectrometry; format: physicochemical
[17] = Reactivity with glutathione assessed as addition product with thiol group measured within 1 hr by mass spectrometry; format: physicochemical

Structure (SMILES): CC1=NN(c2ccc(C(=O)O)cc2)C(=O)/C1=C\c1ccc(-c2cc(C)c(C)cc2[N+](=O)[O-])[nH]1
- pIC50 [1]: 5.71

Structure (SMILES): Cc1cc(-c2ccc(/C=C3/SC(=O)N(c4ccc(C(=O)O)cc4)C3=O)o2)c([N+](=O)[O-])cc1C
- pIC50 [1]: < 5.00

Structure (SMILES): CC1=NN(c2ccc(C(=O)O)cc2)C(=O)/C1=C\c1ccc(-c2cc(C)c(C)cc2C(F)(F)F)o1
- pIC50 [1]: 6.54
- pIC50 [2]: 5.21
- pIC50 [3]: 4.96
- inhibition [4]: Active

Structure (SMILES): CC1=NN(c2cc(F)c(O)c(F)c2)C(=O)/C1=C\c1ccc(-c2cc(C)c(C)cc2[N+](=O)[O-])o1
- pIC50 [1]: 5.32
- solubility [5]: Soluble
- solubility [6]: Soluble
- inhibition [4]: Active

Structure (SMILES): Cc1cc(-c2ccc(/C=C(\C#N)C(=O)Nc3ccc(C(=O)O)cc3)o2)c([N+](=O)[O-])cc1C
- pIC50 [1]: 5.15

Structure (SMILES): Cc1cc(C(=O)c2ccc3c(cnn3-c3ccc(C(=O)O)cc3)c2)c([N+](=O)[O-])cc1C
- pIC50 [1]: < 5.00

Structure (SMILES): CC1=NN(c2ccc(C(=O)O)cc2)C(=O)C1CC(=O)Nc1cc(C)c(C)cc1[N+](=O)[O-] (stereo not given)
- pIC50 [1]: 5.02

Structure (SMILES): CC1=NN(c2ccc(P(=O)(O)O)cc2)C(=O)/C1=C\c1ccc(-c2cc(C)c(C)cc2[N+](=O)[O-])o1
- pIC50 [1]: 6.33

Structure (SMILES): CC1=NN(c2cc(F)c(O)c(F)c2)C(=O)/C1=C\c1ccc(-c2ccccc2C(F)F)o1
- pIC50 [1]: 5.22
- solubility [5]: Soluble
- solubility [6]: Soluble
- inhibition [4]: Active

Structure (SMILES): CC1=NN(c2ccc(C(=O)O)cc2)C(=O)/C1=C\c1ccc(-c2ccccc2[N+](=O)[O-])o1
- pIC50 [1]: 6.25

Structure (SMILES): CC1=NN(c2ccc(C(=O)O)cc2)C(=O)/C1=C\c1ccc(-c2ccccc2P(C)(C)=O)o1
- pIC50 [1]: < 5.00

Structure (SMILES): CC1=NN(c2ccc(-c3nn[nH]n3)cc2)C(=O)/C1=C\c1ccc(-c2cc(C)c(C)cc2[N+](=O)[O-])o1
- pIC50 [1]: 6.17

Structure (SMILES): CC1=NN(c2ccc(C(=O)O)cc2)C(=O)/C1=C\c1ccc(-c2ccccc2OC(F)(F)F)o1
- pIC50 [1]: 5.95
- pIC50 [2]: 5.12
- pIC50 [3]: 4.62
- inhibition [4]: Active

Structure (SMILES): CC1=NN(c2ccc(C(=O)O)cc2)C(=O)/C1=C\c1ccc(-c2cc(C)c(C)cc2[N+](=O)[O-])s1
- pIC50 [1]: 6.64
- pIC50 [2]: 5.05
- pIC50 [3]: 4.56
- inhibition [4]: Active

Structure (SMILES): CC1=NN(c2cc(F)c(O)c(F)c2)C(=O)/C1=C\c1ccc(-c2cccc3c2C(=O)CC3)o1
- pIC50 [1]: 5.43
- solubility [5]: Soluble
- solubility [6]: Soluble
- inhibition [4]: Active

Structure (SMILES): Cc1cc(C(=O)c2ccc3c(ccn3-c3ccc(C(=O)O)cc3)c2)c([N+](=O)[O-])cc1C
- pIC50 [1]: < 5.00

Structure (SMILES): CC1=NN(c2cc(F)c(O)c(F)c2)C(=O)/C1=C\c1ccc(-c2ccccc2OC(F)(F)F)o1
- pIC50 [1]: < 5.00

Structure (SMILES): Cc1cc(-c2ccc(/C=C3/NC(=O)N(c4ccc(C(=O)O)cc4)C3=O)o2)c([N+](=O)[O-])cc1C
- pIC50 [1]: < 5.00

Structure (SMILES): CCC1=NN(c2ccc(C(=O)O)cc2)C(=O)/C1=C\c1ccc(-c2cc(C)c(C)cc2[N+](=O)[O-])o1
- pIC50 [1]: 6.72

Structure (SMILES): CC1=NN(c2ccc(C#N)cc2)C(=O)/C1=C\c1ccc(-c2cc(C)c(C)cc2[N+](=O)[O-])o1
- pIC50 [1]: 5.82

Structure (SMILES): Cc1cc(-c2ccc(/C=C3\C(=O)N(c4ccc(C(=O)O)cc4)N=C3C3CC3)o2)c([N+](=O)[O-])cc1C
- pIC50 [1]: 6.70

Structure (SMILES): CC1=NN(c2ccc(C(=O)O)cc2)C(=O)/C1=C\c1cnc(-c2cc(C)c(C)cc2[N+](=O)[O-])s1
- pIC50 [1]: 6.07

Structure (SMILES): Cc1cc(-c2ccc(/C=C3\C(=O)N(c4ccc(C(=O)O)cc4)N=C3C3CC3)s2)c(C(F)(F)F)cc1C
- Activity [7]: Not Active
- pIC50 [8]: 4.60
- pIC50 [1]: 6.80
- pIC50 [2]: 5.29
- pIC50 [9]: < 4.00
- Activity [10]: Active
- Activity [11]: Active
- pIC50 [12]: < 4.00
- pIC50 [13]: < 4.00
- pIC50 [14]: < 4.00
- Activity [15]: Not Active
- pIC50 [3]: 4.65
- inhibition [4]: Active

Structure (SMILES): CC1=NN(c2cc(F)c(O)c(F)c2)C(=O)/C1=C\c1ccc(-c2cc(C)c(C)cc2C(F)(F)F)o1
- pIC50 [1]: 5.14
- solubility [5]: Soluble
- solubility [6]: Soluble
- inhibition [4]: Active

Structure (SMILES): CC1=NN(c2ccc(S(C)(=O)=O)cc2)C(=O)/C1=C\c1ccc(-c2cc(C)c(C)cc2[N+](=O)[O-])o1
- pIC50 [1]: 5.39

Structure (SMILES): CC1=NN(c2ccc(C(=O)O)cc2)C(=O)/C1=C\c1ccc(-c2cc(C)c(C)cc2[N+](=O)[O-])o1
- pIC50 [2]: 5.11
- Activity [16]: Active
- Activity [17]: Active
- pIC50 [3]: 4.58

Structure (SMILES): CC1=NN(c2ccc(C(=O)O)cc2)C(=O)/C1=C\c1ccc(-c2ccccc2C(F)F)o1
- pIC50 [1]: 5.93

Structure (SMILES): Cc1cc(Cc2ccc3c(cnn3-c3ccc(C(=O)O)cc3)c2)c([N+](=O)[O-])cc1C
- pIC50 [1]: < 5.00

Structure (SMILES): CC1=NN(c2ccc(C(=O)O)cc2)C(=O)C1CCC(=O)Nc1cc(C)c(C)cc1[N+](=O)[O-] (stereo not given)
- pIC50 [1]: < 5.00

Structure (SMILES): CC1=NN(c2ccc(C(=O)O)cc2)C(=O)/C1=C\c1ccc(-c2cccc3c2C(=O)CC3)o1
- pIC50 [1]: 6.24
- pIC50 [2]: 5.00
- pIC50 [3]: 4.57
- inhibition [4]: Active

Structure (SMILES): CC1=NN(c2ccc(C(=O)O)cc2)C(=O)/C1=C(/C)c1ccc(-c2cc(C)c(C)cc2[N+](=O)[O-])o1
- pIC50 [1]: 5.68
